We go through 9 compounds from PubChem BioAssay (NCI).

Some test systems named below: A549 NSCLC; BT-549 breast; COLO 205 colon; DU-145 prostate; HL-60(TB) leukemia; HT29 colon; MDA-MB-231 breast; NCI/ADR-RES ovarian; SF-268 CNS; SR leukemia.
What all share (test): NCI tumour cell line growth inhibition, 48 h

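Cells were grown in 96-well plates and exposed to each compound for 48 hours at five concentrations; endpoints were interpolated linearly between bracketing concentrations, or set to the highest concentration if not reached. Abbreviation: GI50, concentration required for 50% inhibition of growth. TGI denotes the concentration required for complete inhibition of growth.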 Where only a bound is given, the exact number is not on record here.

As for `CN=c1ccc2nc3ccc(N)cc3sc-2c1`, the GI50 was 0.714 µM in the assay with A549 NSCLC; 11.5 µM with BT-549 breast; 2.57 µM in the assay on COLO 205 colon; 10.7 µM in the assay with DU-145 prostate; 0.354 µM in the assay with HL-60(TB) leukemia; 8.44 µM in the assay on HT29 colon. The GI50 in the assay on MDA-MB-231 breast was 0.7 µM; in the assay on NCI/ADR-RES ovarian it was 1.6 µM; with SF-268 CNS, 2.84 µM. For the same compound, the TGI came to 13.3 µM in the assay on A549 NSCLC; 44.4 µM in the assay on BT-549 breast; 12.2 µM in the assay on COLO 205 colon; 23.5 µM in the assay with DU-145 prostate; 1.67 µM in the assay on HL-60(TB) leukemia; 34.3 µM with HT29 colon. For the same compound, the TGI turned out to be 14.3 µM with MDA-MB-231 breast, 8.44 µM in the assay on NCI/ADR-RES ovarian and 17.1 µM in the assay with SF-268 CNS.
`O=C(/C=C/c1cc2ccccc2[nH]c1=O)/C=C/c1cc2ccccc2[nH]c1=O`: the TGI with A549 NSCLC was above 59.2 µM; in the assay with BT-549 breast it was 12.4 µM; with COLO 205 colon, above 59.7 µM; with DU-145 prostate, above 70.3 µM; in the assay on HL-60(TB) leukemia it was above 100 µM; in the assay with MDA-MB-231 breast, above 100 µM. In addition, the TGI in the assay on NCI/ADR-RES ovarian was above 100 µM; in the assay on SF-268 CNS, 99.7 µM; in the assay on SR leukemia it was above 100 µM. Further, the GI50 was 6.86 µM in the assay with BT-549 breast; 10.2 µM in the assay with COLO 205 colon; 12.3 µM in the assay with DU-145 prostate; above 32.3 µM in the assay with HL-60(TB) leukemia; 15.4 µM in the assay with MDA-MB-231 breast; above 78 µM in the assay with NCI/ADR-RES ovarian. For the same compound, the GI50 in the assay with SF-268 CNS was 18 µM; in the assay with SR leukemia, 6.42 µM.
With `NNC(=O)CS(=O)(=O)Nc1ncccn1`, the TGI with A549 NSCLC, in the assay with BT-549 breast, in the assay with COLO 205 colon, in the assay with DU-145 prostate, in the assay with HT29 colon and in the assay on MDA-MB-231 breast was above 100 µM in each case. Further, the TGI in the assay with NCI/ADR-RES ovarian and in the assay on SF-268 CNS was above 100 µM in each case.
In the case of `C1CCC([PH+](C2CCCCC2)C2CCCCC2[PH+](C2CCCCC2)C2CCCCC2)CC1.[Au].[CH-]1CCCCC1CC1CCCC[N-]1` (stereo not drawn), the GI50 is 0.241 µM in the assay on A549 NSCLC; 0.33 µM in the assay with BT-549 breast; 0.262 µM in the assay with COLO 205 colon; 0.363 µM in the assay with DU-145 prostate; 0.277 µM in the assay with HL-60(TB) leukemia; 0.342 µM with HT29 colon. Further, the GI50 in the assay on MDA-MB-231 breast is 0.227 µM; with NCI/ADR-RES ovarian it was 2.86 µM; with SF-268 CNS, 0.405 µM. For the same compound, the TGI in the assay with A549 NSCLC was 3.03 µM; with BT-549 breast, 1.51 µM; in the assay with COLO 205 colon, 0.696 µM; with DU-145 prostate, 2.2 µM; with HL-60(TB) leukemia it was 0.833 µM; in the assay on HT29 colon, 1.98 µM. The values for the TGI in the assay with MDA-MB-231 breast, in the assay on NCI/ADR-RES ovarian and in the assay with SF-268 CNS were 0.689 µM, above 100 µM and 2.11 µM, respectively.
On to `O=C1c2cccnc2C(=O)c2c1c(C(=O)NCCCN1CCCCC1)c1ccccn21`, for which the GI50 in the assay on A549 NSCLC was 1.25 µM; in the assay with BT-549 breast, 2.47 µM; in the assay with COLO 205 colon it was 0.268 µM; in the assay with DU-145 prostate it was 1.2 µM; in the assay with HT29 colon it was 0.391 µM; with MDA-MB-231 breast it was 0.562 µM. The results for the GI50 in the assay with NCI/ADR-RES ovarian, in the assay with SF-268 CNS and in the assay on SR leukemia were 2.08 µM, 1.25 µM and 0.474 µM, respectively. In addition, the TGI in the assay on A549 NSCLC is 3.8 µM; in the assay with BT-549 breast, 6.89 µM; in the assay with COLO 205 colon, 0.928 µM; in the assay on DU-145 prostate it was 2.61 µM; in the assay on HT29 colon, 2.92 µM; in the assay with MDA-MB-231 breast, 7.23 µM. In addition, the TGI in the assay with NCI/ADR-RES ovarian is 7.37 µM; in the assay on SF-268 CNS, 8.3 µM; in the assay on SR leukemia, above 100 µM.
Consider `CCCCCCCCCCCCCCCCCC[n+]1ccc2c(C)c3c(c(C)c2c1)c1cc(O)ccc1n3CC`, for which the GI50 was 1.28 µM in the assay on A549 NSCLC; 2.72 µM in the assay with BT-549 breast; 1.87 µM in the assay with DU-145 prostate; 2.33 µM with HL-60(TB) leukemia; 1.14 µM in the assay with HT29 colon; 2.76 µM with MDA-MB-231 breast. Besides, the GI50 in the assay with NCI/ADR-RES ovarian is 10.8 µM; with SF-268 CNS, 1.95 µM. In addition, the TGI in the assay with A549 NSCLC is 5.47 µM; with BT-549 breast it was 10.5 µM; in the assay with DU-145 prostate, 5.64 µM; with HL-60(TB) leukemia, 12.4 µM; in the assay on HT29 colon it was 15.2 µM; in the assay with MDA-MB-231 breast, 12.7 µM. For the same compound, the values for the TGI with NCI/ADR-RES ovarian and in the assay on SF-268 CNS were 39 µM and 5.11 µM, respectively.
Turning to `COc1cc2c(cc1C1COc3cc4occc4cc3C1=O)OCO2` (stereo not drawn), the TGI in the assay with A549 NSCLC, with BT-549 breast, in the assay on COLO 205 colon, in the assay with DU-145 prostate, with HT29 colon and in the assay on MDA-MB-231 breast was above 100 µM in each case. Moreover, the TGI in the assay with NCI/ADR-RES ovarian, in the assay with SF-268 CNS and with SR leukemia was above 100 µM in each case.
On to `COc1cccc(OC(=O)c2ccc(C(F)(F)F)nc2Nc2cc(Cl)ccc2C)c1`, for which the GI50 in the assay on A549 NSCLC is 6.1 µM; with BT-549 breast it was 7.63 µM; in the assay on COLO 205 colon, 4.04 µM; in the assay on DU-145 prostate, 9.01 µM; with HT29 colon it was 4.28 µM; with MDA-MB-231 breast, 2.76 µM. For the same compound, the GI50 in the assay with NCI/ADR-RES ovarian is 19.6 µM; in the assay on SF-268 CNS, 4.38 µM. The TGI in the assay with A549 NSCLC was above 100 µM; in the assay with BT-549 breast, 41.7 µM; with COLO 205 colon it was above 100 µM; in the assay with DU-145 prostate it was above 100 µM; in the assay with HT29 colon, above 100 µM; in the assay on MDA-MB-231 breast, 15.7 µM. Also, the TGI in the assay on NCI/ADR-RES ovarian and in the assay on SF-268 CNS was above 100 µM each time.
For `COc1ccc(-c2cc(-c3ccc(C)cc3)nc3nc(=S)[nH]c(N)c23)cc1`, the GI50 in the assay with A549 NSCLC is 24.3 µM; with BT-549 breast, 27.1 µM; with COLO 205 colon, 26.8 µM; with DU-145 prostate, 26.3 µM; in the assay on HT29 colon it was 19.1 µM; in the assay on MDA-MB-231 breast it was 19.5 µM. Also, the GI50 is 32.2 µM in the assay with NCI/ADR-RES ovarian, 17.5 µM with SF-268 CNS and 24.6 µM in the assay with SR leukemia. In addition, the TGI in the assay with A549 NSCLC was above 100 µM; in the assay on BT-549 breast, 60.4 µM; in the assay with COLO 205 colon, 91.6 µM; in the assay with DU-145 prostate it was 75.5 µM; in the assay with HT29 colon, above 100 µM; in the assay on MDA-MB-231 breast, 48.3 µM. Besides, the TGI in the assay with NCI/ADR-RES ovarian is above 100 µM; in the assay on SF-268 CNS it was 35.5 µM; in the assay with SR leukemia, 55.8 µM.
